Measurements: patent publication US20020031795A1, “Nitrocoumarins for detecting all micro-organisms” (priority 1998, published 2002)
Entries after “also recorded” stand apart in the source; their conditions may differ.

Experiments:
Assay type in all cases: cell-based
[1] = test system: Escherichia coli (NCTC 10418); assay: Growth of E. coli in Mueller-Hinton broth in the presence of nitrocoumarins (optical density 690 nm)
Description: A sample of the 7-nitrocoumarin derivative is dissolved in 4 ml of hot, distilled water. The mass dissolved to make the stock solution is such that the final concentration of the compound in the assay is 0.105 mmol/l. This solution is added to 96 ml of Mueller-Hinton broth and the mixture is sterile-filtered.
(§1) The E. coli was grown for 24 hours at 35° C. on Columbia agar supplemented with sheep blood. The bacteria were then resuspended in sterile, distilled water and their density was adjusted to 0.5 on the MacFarland scale (i.e. about 10^8 cells/ml). This suspension was then diluted 100-fold in sterile Mueller-Hinton broth (i.e. to a final density of about 10^6 cells/ml).
(§2) Fifty microliters of each nitrocoumarin solution plus 50 μl of bacterial suspension were then added to the wells of a microtiter plate. The plates were incubated at 35° C. and the optical density and fluorescence of each well was read every 30 min for a total of 4 hours. Optical density (690 nm) readings were made using an Anthos 2001 spectrophotometer (Labtech International Limited), and fluorescence (excitation at 365 nm and emission at 440 nm) readings were made on a Biolite F1 2001 fluorometer (Labtech International Limited).
The effect of the concentration of 7-nitrocoumarin-3-carboxylic acid on the sensitivity of the assay to detect E. coli (NCTC strain 10418) was investigated at concentrations of the indicator ranging from 0 to 0.262 mmol/l. All other conditions were identical to those described in section A above.

Citrobacter diversus = assay: Reduction of the indicator by wild Enterobacteriaceae strain (fluorescence); conditions: 0.17 mmol/l
Description: as §1, §2
(§3) This experiment was designed to investigate whether or not it would be possible to detect Enterobacteriaceae other than E. coli using 7-nitrocoumarin-3-carboxylic acid. The conditions for this experiment were similar to those described for the first experiment (section A).
(§4) Five wild strains belonging to the species Citrobacter diversus, Enterobacter agglomerans, Hafnia alvei, Morganella morganii and Shigella sonnei were tested

Enterobacter agglomerans = assay: as above; conditions: 0.17 mmol/l
Description: as §1, §2, §3, §4

Hafnia alvei = assay: as above; conditions: 0.17 mmol/l
Description: as §1, §2, §3, §4

Morganella morganii = assay: as above; conditions: 0.17 mmol/l
Description: as §1, §2, §3, §4

Shigella sonnei = assay: as above; conditions: 0.17 mmol/l
Description: as §1, §2, §3, §4

SMILES: O=C(O)c1cc2ccc([N+](=O)[O-])cc2oc1=O [7-nitrocoumarin-3-carboxylic acid]
- Optical density (690 nm) ([1]; 0.005 mmol/l, 0 min): 0.000
- Optical density (690 nm) ([1]; 0.005 mmol/l, 30 min): 0.000
- Optical density (690 nm) ([1]; 0.005 mmol/l, 60 min): 0.003
- Optical density (690 nm) ([1]; 0.005 mmol/l, 90 min): 0.011
- Optical density (690 nm) ([1]; 0.005 mmol/l, 120 min): 0.034
- Optical density (690 nm) ([1]; 0.005 mmol/l, 150 min): 0.090
- Optical density (690 nm) ([1]; 0.005 mmol/l, 180 min): 0.155
- Optical density (690 nm) ([1]; 0.005 mmol/l, 210 min): 0.246
- Optical density (690 nm) ([1]; 0.005 mmol/l, 240 min): 0.411
- Optical density (690 nm) ([1]; 0.013 mmol/l, 0 min): 0.000
- Optical density (690 nm) ([1]; 0.013 mmol/l, 30 min): 0.000
- Optical density (690 nm) ([1]; 0.013 mmol/l, 60 min): 0.003
- Optical density (690 nm) ([1]; 0.013 mmol/l, 90 min): 0.011
- Optical density (690 nm) ([1]; 0.013 mmol/l, 120 min): 0.032
- Optical density (690 nm) ([1]; 0.013 mmol/l, 150 min): 0.088
- Optical density (690 nm) ([1]; 0.013 mmol/l, 180 min): 0.149
- Optical density (690 nm) ([1]; 0.013 mmol/l, 210 min): 0.233
- Optical density (690 nm) ([1]; 0.013 mmol/l, 240 min): 0.371
- Optical density (690 nm) ([1]; 0.026 mmol/l, 0 min): 0.000
- Optical density (690 nm) ([1]; 0.026 mmol/l, 30 min): 0.001
- Optical density (690 nm) ([1]; 0.026 mmol/l, 60 min): 0.004
- Optical density (690 nm) ([1]; 0.026 mmol/l, 90 min): 0.011
- Optical density (690 nm) ([1]; 0.026 mmol/l, 120 min): 0.032
- Optical density (690 nm) ([1]; 0.026 mmol/l, 150 min): 0.079
- Optical density (690 nm) ([1]; 0.026 mmol/l, 180 min): 0.201
- Optical density (690 nm) ([1]; 0.026 mmol/l, 210 min): 0.290
- Optical density (690 nm) ([1]; 0.026 mmol/l, 240 min): 0.436
- Optical density (690 nm) ([1]; 0.052 mmol/l, 0 min): 0.000
- Optical density (690 nm) ([1]; 0.052 mmol/l, 30 min): 0.001
- Optical density (690 nm) ([1]; 0.052 mmol/l, 60 min): 0.003
- Optical density (690 nm) ([1]; 0.052 mmol/l, 90 min): 0.011
- Optical density (690 nm) ([1]; 0.052 mmol/l, 120 min): 0.031
- Optical density (690 nm) ([1]; 0.052 mmol/l, 150 min): 0.082
- Optical density (690 nm) ([1]; 0.052 mmol/l, 180 min): 0.153
- Optical density (690 nm) ([1]; 0.052 mmol/l, 210 min): 0.225
- Optical density (690 nm) ([1]; 0.052 mmol/l, 240 min): 0.408
- Inhibitory effect on the growth of E. coli (in words) ([1]; 0.105 mmol/l): no retarded growth; also recorded: does not inhibit E. coli growth
- Optical density (690 nm) ([1]; 0.105 mmol/l, 0 min): 0.000
- Optical density (690 nm) ([1]; 0.105 mmol/l, 30 min): 0.000
- Optical density (690 nm) ([1]; 0.105 mmol/l, 60 min): 0.002
- Optical density (690 nm) ([1]; 0.105 mmol/l, 90 min): 0.008
- Optical density (690 nm) ([1]; 0.105 mmol/l, 120 min): 0.026
- Optical density (690 nm) ([1]; 0.105 mmol/l, 150 min): 0.068
- Optical density (690 nm) ([1]; 0.105 mmol/l, 180 min): 0.164
- Optical density (690 nm) ([1]; 0.105 mmol/l, 210 min): 0.227
- Optical density (690 nm) ([1]; 0.105 mmol/l, 240 min): 0.416
- Optical density (690 nm) ([1]; 0.157 mmol/l, 0 min): 0.000
- Optical density (690 nm) ([1]; 0.157 mmol/l, 30 min): −0.001
- Optical density (690 nm) ([1]; 0.157 mmol/l, 60 min): 0.002
- Optical density (690 nm) ([1]; 0.157 mmol/l, 90 min): 0.009
- Optical density (690 nm) ([1]; 0.157 mmol/l, 120 min): 0.027
- Optical density (690 nm) ([1]; 0.157 mmol/l, 150 min): 0.073
- Optical density (690 nm) ([1]; 0.157 mmol/l, 180 min): 0.151
- Optical density (690 nm) ([1]; 0.157 mmol/l, 210 min): 0205
- Optical density (690 nm) ([1]; 0.157 mmol/l, 240 min): 0.372
- Optical density (690 nm) ([1]; 0.210 mmol/l, 0 min): 0.000
- Optical density (690 nm) ([1]; 0.210 mmol/l, 30 min): 0.000
- Optical density (690 nm) ([1]; 0.210 mmol/l, 60 min): 0.003
- Optical density (690 nm) ([1]; 0.210 mmol/l, 90 min): 0.010
- Optical density (690 nm) ([1]; 0.210 mmol/l, 120 min): 0.027
- Optical density (690 nm) ([1]; 0.210 mmol/l, 150 min): 0.072
- Optical density (690 nm) ([1]; 0.210 mmol/l, 180 min): 0.138
- Optical density (690 nm) ([1]; 0.210 mmol/l, 210 min): 0.187
- Optical density (690 nm) ([1]; 0.210 mmol/l, 240 min): 0.346
- Optical density (690 nm) ([1]; 0.262 mmol/l, 0 min): 0.000
- Optical density (690 nm) ([1]; 0.262 mmol/l, 30 min): 0.000
- Optical density (690 nm) ([1]; 0.262 mmol/l, 60 min): 0.002
- Optical density (690 nm) ([1]; 0.262 mmol/l, 90 min): 0.009
- Optical density (690 nm) ([1]; 0.262 mmol/l, 120 min): 0.027
- Optical density (690 nm) ([1]; 0.262 mmol/l, 150 min): 0.069
- Optical density (690 nm) ([1]; 0.262 mmol/l, 180 min): 0.144
- Optical density (690 nm) ([1]; 0.262 mmol/l, 240 min): 0.346
- Effect of the concentration on E. coli growth (in words) ([1]; concentrations from 0 to 0.262 mmol/l): no significant effect
- Fluorescent signal (Citrobacter diversus; 0 min): 0
- Fluorescent signal (Citrobacter diversus; 30 min): 3
- Fluorescent signal (Citrobacter diversus; 60 min): 3
- Fluorescent signal (Citrobacter diversus; 90 min): 34
- Fluorescent signal (Citrobacter diversus; 120 min): 92
- Fluorescent signal (Citrobacter diversus; 150 min): 281
- Fluorescent signal (Citrobacter diversus; 180 min): 546
- Fluorescent signal (Citrobacter diversus; 210 min): 1209
- Fluorescent signal (Citrobacter diversus; 240 min): 5393
- Fluorescent signal (Enterobacter agglomerans; 0 min): 0
- Fluorescent signal (Enterobacter agglomerans; 30 min): −15
- Fluorescent signal (Enterobacter agglomerans; 60 min): −3
- Fluorescent signal (Enterobacter agglomerans; 90 min): 9
- Fluorescent signal (Enterobacter agglomerans; 120 min): 74
- Fluorescent signal (Enterobacter agglomerans; 150 min): 199
- Fluorescent signal (Enterobacter agglomerans; 180 min): 501
- Fluorescent signal (Enterobacter agglomerans; 210 min): 1246
- Fluorescent signal (Enterobacter agglomerans; 240 min): 4099
- Fluorescent signal (Hafnia alvei; 0 min): 0
- Fluorescent signal (Hafnia alvei; 30 min): −24
- Fluorescent signal (Hafnia alvei; 60 min): −30
- Fluorescent signal (Hafnia alvei; 90 min): 0
- Fluorescent signal (Hafnia alvei; 120 min): 40
- Fluorescent signal (Hafnia alvei; 150 min): 122
- Fluorescent signal (Hafnia alvei; 180 min): 260
- Fluorescent signal (Hafnia alvei; 210 min): 775
- Fluorescent signal (Hafnia alvei; 240 min): 2048
- Fluorescent signal (Morganella morganii; 0 min): 0
- Fluorescent signal (Morganella morganii; 30 min): −42
- Fluorescent signal (Morganella morganii; 60 min): −24
- Fluorescent signal (Morganella morganii; 90 min): −15
- Fluorescent signal (Morganella morganii; 120 min): 31
- Fluorescent signal (Morganella morganii; 150 min): 95
- Fluorescent signal (Morganella morganii; 180 min): 403
- Fluorescent signal (Morganella morganii; 210 min): 2170
- Fluorescent signal (Morganella morganii; 240 min): 8128
- Fluorescent signal (Shigella sonnei; 0 min): 0
- Fluorescent signal (Shigella sonnei; 30 min): −9
- Fluorescent signal (Shigella sonnei; 60 min): 15
- Fluorescent signal (Shigella sonnei; 90 min): 52
- Fluorescent signal (Shigella sonnei; 120 min): 162
- Fluorescent signal (Shigella sonnei; 150 min): 434
- Fluorescent signal (Shigella sonnei; 180 min): 1108
- Fluorescent signal (Shigella sonnei; 210 min): 3095
- Fluorescent signal (Shigella sonnei; 240 min): 8567
